Reference: patent US20100137449A1, “SUBSTITUTED 1,3-CYCLOPENTADIONE MULTI-TARGET PROTEIN KINASE MODULATORS OF CANCER, ANGIOGENESIS AND THE INFLAMMATORY PATHWAYS ASSOCIATED THEREWITH” (METAPROTEOMICS, LLC, priority 2007, published 2010)

Assays:
Test in all cases: KinaseProfiler Assay
FGFR2(N549H)(h) = FGFR2(N549H)(h) (Homo sapiens, UniProt P21802, N549H)
SRPK1(h) = SRPK1(h) (Homo sapiens, UniProt Q96SB4)
CaMKIδ(h) = CaMKIδ(h) (Homo sapiens, UniProt Q8IU85)
PAK5(h) = PAK5(h) (Homo sapiens, UniProt Q9P286)
CaMKI(h) = CaMKI(h) (Homo sapiens, UniProt Q14012)
EphB3(h) = target: T1, EphB3(h) (Homo sapiens, UniProt P54753)
T1 sequence (P54753 34-998): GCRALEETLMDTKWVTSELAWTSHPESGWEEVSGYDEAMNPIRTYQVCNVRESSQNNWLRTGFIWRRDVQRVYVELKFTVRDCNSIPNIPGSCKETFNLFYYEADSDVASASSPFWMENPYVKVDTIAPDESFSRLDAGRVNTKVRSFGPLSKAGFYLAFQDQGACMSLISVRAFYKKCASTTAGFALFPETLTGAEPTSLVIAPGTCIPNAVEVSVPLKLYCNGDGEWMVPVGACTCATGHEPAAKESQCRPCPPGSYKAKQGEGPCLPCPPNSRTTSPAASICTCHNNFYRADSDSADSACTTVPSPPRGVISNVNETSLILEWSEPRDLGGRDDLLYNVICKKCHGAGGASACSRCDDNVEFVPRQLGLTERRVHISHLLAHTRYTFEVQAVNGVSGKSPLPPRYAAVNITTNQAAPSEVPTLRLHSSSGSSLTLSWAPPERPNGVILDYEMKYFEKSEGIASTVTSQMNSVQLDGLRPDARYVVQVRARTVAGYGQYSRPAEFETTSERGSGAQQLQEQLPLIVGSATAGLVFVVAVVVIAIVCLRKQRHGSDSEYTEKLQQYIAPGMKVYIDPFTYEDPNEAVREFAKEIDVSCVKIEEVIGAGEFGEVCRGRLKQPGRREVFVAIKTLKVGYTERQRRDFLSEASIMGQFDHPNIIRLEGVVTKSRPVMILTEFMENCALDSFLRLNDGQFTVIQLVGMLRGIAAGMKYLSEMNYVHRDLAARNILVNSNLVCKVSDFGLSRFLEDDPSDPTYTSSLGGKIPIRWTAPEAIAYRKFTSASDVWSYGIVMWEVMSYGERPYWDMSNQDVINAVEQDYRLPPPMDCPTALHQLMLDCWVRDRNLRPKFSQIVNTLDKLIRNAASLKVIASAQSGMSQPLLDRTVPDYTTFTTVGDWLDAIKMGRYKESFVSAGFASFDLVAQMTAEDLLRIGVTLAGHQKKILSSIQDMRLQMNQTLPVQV

PDGFRβ(h) = PDGFRβ(h) (Homo sapiens, UniProt P09619)
Tie2(Y897S)(h) = Tie2(Y897S)(h) (Homo sapiens, UniProt Q02763, Y897S)
cKit(V654A)(h) = cKit(V654A)(h) (Homo sapiens, UniProt P10721, V654A)
PI 3-Kinaseβ(h) = PI 3-Kinaseβ(h) (Homo sapiens, UniProt P42338)
P70S6K(h) = P70S6K(h) (Homo sapiens, UniProt P23443)
SIK(h) = SIK(h) (Homo sapiens, UniProt P57059)
Abl(Y253F)(h) = Abl(Y253F)(h) (Homo sapiens, UniProt P00519, Y253F)

Chain of P70S6K(h) (P23443 whole entry): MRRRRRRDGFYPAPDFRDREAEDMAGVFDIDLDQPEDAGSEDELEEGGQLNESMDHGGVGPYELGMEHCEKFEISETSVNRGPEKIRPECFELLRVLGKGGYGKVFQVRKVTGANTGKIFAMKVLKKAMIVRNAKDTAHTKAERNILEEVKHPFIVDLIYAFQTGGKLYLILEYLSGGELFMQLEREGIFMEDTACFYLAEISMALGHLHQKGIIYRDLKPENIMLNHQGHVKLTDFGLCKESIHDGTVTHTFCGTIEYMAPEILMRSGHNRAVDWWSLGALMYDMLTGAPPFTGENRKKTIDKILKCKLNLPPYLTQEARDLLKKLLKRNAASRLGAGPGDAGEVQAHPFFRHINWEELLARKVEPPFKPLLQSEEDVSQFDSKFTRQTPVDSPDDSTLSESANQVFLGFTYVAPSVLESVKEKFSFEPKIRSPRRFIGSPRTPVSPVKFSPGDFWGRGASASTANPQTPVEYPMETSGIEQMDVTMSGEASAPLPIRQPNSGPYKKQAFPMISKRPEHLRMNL
Chain of PI 3-Kinaseβ(h) (P42338 whole entry): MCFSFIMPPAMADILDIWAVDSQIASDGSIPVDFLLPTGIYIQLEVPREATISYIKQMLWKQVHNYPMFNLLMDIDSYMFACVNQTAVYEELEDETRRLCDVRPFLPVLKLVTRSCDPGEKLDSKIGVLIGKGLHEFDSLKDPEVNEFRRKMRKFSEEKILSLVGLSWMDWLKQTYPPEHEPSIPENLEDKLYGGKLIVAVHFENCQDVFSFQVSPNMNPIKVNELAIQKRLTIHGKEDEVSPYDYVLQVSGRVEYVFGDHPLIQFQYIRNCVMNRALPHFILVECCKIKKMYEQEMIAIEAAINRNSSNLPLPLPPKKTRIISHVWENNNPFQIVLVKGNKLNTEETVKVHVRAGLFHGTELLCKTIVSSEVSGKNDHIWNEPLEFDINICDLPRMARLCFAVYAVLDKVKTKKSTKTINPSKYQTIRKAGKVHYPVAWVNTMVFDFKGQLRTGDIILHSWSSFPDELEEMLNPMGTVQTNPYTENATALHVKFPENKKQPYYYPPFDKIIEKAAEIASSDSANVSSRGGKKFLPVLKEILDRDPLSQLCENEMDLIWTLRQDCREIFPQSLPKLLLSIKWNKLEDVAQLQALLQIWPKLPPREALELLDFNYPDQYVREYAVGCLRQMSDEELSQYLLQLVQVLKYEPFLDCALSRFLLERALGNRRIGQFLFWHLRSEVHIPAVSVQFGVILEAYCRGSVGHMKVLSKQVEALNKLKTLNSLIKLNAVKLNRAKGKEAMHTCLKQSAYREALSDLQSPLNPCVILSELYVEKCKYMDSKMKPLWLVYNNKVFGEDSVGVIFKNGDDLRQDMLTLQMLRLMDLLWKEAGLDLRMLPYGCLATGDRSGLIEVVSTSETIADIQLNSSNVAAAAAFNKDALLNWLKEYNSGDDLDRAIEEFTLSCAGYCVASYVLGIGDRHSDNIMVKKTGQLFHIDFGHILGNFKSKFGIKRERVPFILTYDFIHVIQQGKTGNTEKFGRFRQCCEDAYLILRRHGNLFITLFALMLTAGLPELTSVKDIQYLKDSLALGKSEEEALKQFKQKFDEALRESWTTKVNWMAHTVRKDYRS
Chain of PI 3-Kinaseβ(h) (P27986 whole entry partner): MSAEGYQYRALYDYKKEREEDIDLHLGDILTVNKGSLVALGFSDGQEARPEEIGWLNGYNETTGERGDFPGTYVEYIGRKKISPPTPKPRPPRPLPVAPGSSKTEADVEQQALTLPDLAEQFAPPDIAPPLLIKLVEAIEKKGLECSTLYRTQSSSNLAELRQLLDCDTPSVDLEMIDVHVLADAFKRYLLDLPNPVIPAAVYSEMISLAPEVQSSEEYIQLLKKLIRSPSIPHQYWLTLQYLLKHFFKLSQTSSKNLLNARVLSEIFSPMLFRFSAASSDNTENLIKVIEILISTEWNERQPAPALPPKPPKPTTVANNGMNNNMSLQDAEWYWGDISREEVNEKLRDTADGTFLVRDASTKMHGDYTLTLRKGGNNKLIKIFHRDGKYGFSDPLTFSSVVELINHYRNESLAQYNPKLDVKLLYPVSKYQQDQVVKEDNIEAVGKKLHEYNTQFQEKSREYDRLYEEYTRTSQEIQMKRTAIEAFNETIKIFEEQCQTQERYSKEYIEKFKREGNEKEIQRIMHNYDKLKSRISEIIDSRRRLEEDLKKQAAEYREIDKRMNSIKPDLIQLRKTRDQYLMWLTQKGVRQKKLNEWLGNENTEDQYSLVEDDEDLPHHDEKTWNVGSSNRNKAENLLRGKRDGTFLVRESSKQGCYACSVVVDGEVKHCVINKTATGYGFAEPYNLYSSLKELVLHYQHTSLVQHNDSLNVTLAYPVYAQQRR
Chain of CaMKI(h) (Q14012 whole entry): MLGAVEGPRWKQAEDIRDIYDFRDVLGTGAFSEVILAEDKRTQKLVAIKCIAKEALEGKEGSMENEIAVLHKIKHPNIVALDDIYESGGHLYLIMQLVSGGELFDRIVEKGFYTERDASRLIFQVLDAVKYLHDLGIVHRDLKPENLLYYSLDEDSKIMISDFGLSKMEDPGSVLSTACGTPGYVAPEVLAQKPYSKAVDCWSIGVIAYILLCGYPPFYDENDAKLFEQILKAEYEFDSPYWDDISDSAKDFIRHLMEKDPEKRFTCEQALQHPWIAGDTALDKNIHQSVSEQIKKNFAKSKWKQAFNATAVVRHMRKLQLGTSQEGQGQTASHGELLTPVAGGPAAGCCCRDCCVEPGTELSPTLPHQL
Chain of FGFR2(N549H)(h) (P21802 22-821 N549H): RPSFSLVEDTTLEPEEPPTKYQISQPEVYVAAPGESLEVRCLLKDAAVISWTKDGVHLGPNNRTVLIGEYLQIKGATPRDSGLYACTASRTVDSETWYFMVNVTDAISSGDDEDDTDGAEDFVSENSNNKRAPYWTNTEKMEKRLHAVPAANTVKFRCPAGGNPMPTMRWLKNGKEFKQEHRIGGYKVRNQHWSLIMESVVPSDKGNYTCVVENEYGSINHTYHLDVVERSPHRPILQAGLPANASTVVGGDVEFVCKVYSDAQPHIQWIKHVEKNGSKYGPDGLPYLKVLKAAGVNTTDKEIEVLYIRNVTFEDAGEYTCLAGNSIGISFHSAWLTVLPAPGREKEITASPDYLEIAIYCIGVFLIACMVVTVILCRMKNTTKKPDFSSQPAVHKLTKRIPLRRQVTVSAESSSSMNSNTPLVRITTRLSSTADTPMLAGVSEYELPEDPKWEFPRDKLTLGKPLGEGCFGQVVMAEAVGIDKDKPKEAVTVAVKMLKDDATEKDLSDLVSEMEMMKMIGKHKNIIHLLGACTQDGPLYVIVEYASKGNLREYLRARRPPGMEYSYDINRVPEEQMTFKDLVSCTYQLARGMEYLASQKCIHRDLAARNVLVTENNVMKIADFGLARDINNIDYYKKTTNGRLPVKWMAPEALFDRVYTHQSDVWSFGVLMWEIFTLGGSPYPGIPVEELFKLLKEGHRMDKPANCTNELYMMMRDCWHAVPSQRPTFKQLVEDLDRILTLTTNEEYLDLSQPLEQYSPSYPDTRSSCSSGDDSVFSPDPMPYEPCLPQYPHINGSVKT
Chain of SIK(h) (P57059 whole entry): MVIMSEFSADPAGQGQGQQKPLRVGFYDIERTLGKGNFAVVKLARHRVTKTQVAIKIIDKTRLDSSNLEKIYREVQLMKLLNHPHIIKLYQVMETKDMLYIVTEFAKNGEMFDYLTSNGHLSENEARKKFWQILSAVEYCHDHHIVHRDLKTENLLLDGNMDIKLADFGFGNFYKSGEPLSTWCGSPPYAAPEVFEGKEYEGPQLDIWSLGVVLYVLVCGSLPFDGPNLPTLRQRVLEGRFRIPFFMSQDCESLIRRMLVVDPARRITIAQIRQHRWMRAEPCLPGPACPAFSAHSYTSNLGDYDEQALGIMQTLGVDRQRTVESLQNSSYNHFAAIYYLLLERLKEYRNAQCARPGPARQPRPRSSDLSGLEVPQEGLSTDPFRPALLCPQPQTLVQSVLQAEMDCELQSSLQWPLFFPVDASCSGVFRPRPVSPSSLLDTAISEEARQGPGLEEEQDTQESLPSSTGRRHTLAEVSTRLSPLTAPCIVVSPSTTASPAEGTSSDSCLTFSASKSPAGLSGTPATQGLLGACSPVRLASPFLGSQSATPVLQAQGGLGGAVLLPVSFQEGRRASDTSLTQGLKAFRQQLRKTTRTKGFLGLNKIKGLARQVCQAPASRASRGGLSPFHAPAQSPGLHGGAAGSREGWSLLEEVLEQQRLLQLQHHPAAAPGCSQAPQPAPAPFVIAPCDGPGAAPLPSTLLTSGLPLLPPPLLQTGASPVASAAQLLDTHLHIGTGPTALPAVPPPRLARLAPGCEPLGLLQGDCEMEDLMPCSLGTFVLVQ
Chain of CaMKIδ(h) (Q8IU85 whole entry): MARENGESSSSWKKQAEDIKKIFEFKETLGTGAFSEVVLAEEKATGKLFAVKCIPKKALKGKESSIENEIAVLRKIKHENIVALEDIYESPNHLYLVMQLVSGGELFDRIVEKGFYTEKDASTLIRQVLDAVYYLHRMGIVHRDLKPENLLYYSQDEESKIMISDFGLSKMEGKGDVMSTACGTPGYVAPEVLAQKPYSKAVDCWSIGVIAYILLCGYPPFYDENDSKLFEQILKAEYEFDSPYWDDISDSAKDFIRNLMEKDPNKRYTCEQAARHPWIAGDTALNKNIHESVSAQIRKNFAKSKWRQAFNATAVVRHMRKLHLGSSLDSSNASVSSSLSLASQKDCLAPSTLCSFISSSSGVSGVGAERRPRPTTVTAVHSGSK

In the case of CC(C)CCC(=O)[C@]1(O)C(O)=C(C(=O)C(C)C)C(=O)[C@H]1CCC(C)C [TH2, tetrahydroiso-cohumulone], the kinase inhibition (FGFR2(N549H)(h); 1 μg/ml) is reported as 110% of control, the kinase inhibition (FGFR2(N549H)(h); 5 μg/ml) is reported as 102% of control and the kinase inhibition (FGFR2(N549H)(h); 25 μg/ml) is reported as 103% of control. The kinase inhibition (FGFR2(N549H)(h); 50 μg/ml) was 103% of control, the kinase inhibition (FGFR2(N549H)(h); 100 μg/ml) was 82% of control and the kinase inhibition (SRPK1(h); 1 μg/ml) was 47% of control. For the same compound, the kinase inhibition (SRPK1(h); 5 μg/ml) was 89% of control, the kinase inhibition (SRPK1(h); 25 μg/ml) was 61% of control and the kinase inhibition (SRPK1(h); 50 μg/ml) was 53% of control. The kinase inhibition (SRPK1(h); 100 μg/ml) was 45% of control, the kinase inhibition (CaMKIδ(h); 1 μg/ml) was 95% of control and the kinase inhibition (CaMKIδ(h); 5 μg/ml) was 88% of control. The kinase inhibition (CaMKIδ(h); 25 μg/ml) was 101% of control, the kinase inhibition (CaMKIδ(h); 50 μg/ml) was 105% of control and the kinase inhibition (CaMKIδ(h); 100 μg/ml) was 98% of control. For the same compound, the kinase inhibition (PAK5(h); 1 μg/ml) was 106% of control, the kinase inhibition (PAK5(h); 5 μg/ml) was 105% of control and the kinase inhibition (PAK5(h); 25 μg/ml) was 91% of control. For the same compound, the kinase inhibition (PAK5(h); 50 μg/ml) was 93% of control, the kinase inhibition (PAK5(h); 100 μg/ml) was 61% of control and the kinase inhibition (CaMKI(h); 1 μg/ml) was 96% of control. The kinase inhibition (CaMKI(h); 5 μg/ml) was 93% of control, the kinase inhibition (CaMKI(h); 25 μg/ml) was 73% of control and the kinase inhibition (CaMKI(h); 50 μg/ml) was 48% of control. For the same compound, the kinase inhibition (CaMKI(h); 100 μg/ml) was 48% of control, the kinase inhibition (EphB3(h); 1 μg/ml) was 80% of control and the kinase inhibition (EphB3(h); 5 μg/ml) was 71% of control. For the same compound, the kinase inhibition (EphB3(h); 25 μg/ml) was 69% of control, the kinase inhibition (EphB3(h); 50 μg/ml) was 62% of control and the kinase inhibition (EphB3(h); 100 μg/ml) was 57% of control. The kinase inhibition (PDGFRβ(h); 1 μg/ml) was 111% of control, the kinase inhibition (PDGFRβ(h); 5 μg/ml) was 110% of control and the kinase inhibition (PDGFRβ(h); 25 μg/ml) was 53% of control. The kinase inhibition (PDGFRβ(h); 50 μg/ml) was 50% of control, the kinase inhibition (PDGFRβ(h); 100 μg/ml) was 44% of control and the kinase inhibition (Tie2(Y897S)(h); 1 μg/ml) was 82% of control. For the same compound, the kinase inhibition (Tie2(Y897S)(h); 5 μg/ml) was 46% of control, the kinase inhibition (Tie2(Y897S)(h); 25 μg/ml) was 27% of control and the kinase inhibition (Tie2(Y897S)(h); 50 μg/ml) was 35% of control. The kinase inhibition (Tie2(Y897S)(h); 100 μg/ml) was 32% of control, the kinase inhibition (cKit(V654A)(h); 1 μg/ml) was 100% of control and the kinase inhibition (cKit(V654A)(h); 5 μg/ml) was 101% of control. The kinase inhibition (cKit(V654A)(h); 25 μg/ml) was 112% of control, the kinase inhibition (cKit(V654A)(h); 50 μg/ml) was 88% of control and the kinase inhibition (cKit(V654A)(h); 100 μg/ml) was 75% of control. The kinase inhibition (PI 3-Kinaseβ(h); 1 μg/ml) was 99% of control, the kinase inhibition (PI 3-Kinaseβ(h); 5 μg/ml) was 95% of control and the kinase inhibition (PI 3-Kinaseβ(h); 25 μg/ml) was 75% of control. The kinase inhibition (PI 3-Kinaseβ(h); 50 μg/ml) was 47% of control, the kinase inhibition (PI 3-Kinaseβ(h); 100 μg/ml) was 28% of control and the kinase inhibition (P70S6K(h); 1 μg/ml) was 108% of control. The kinase inhibition (P70S6K(h); 5 μg/ml) was 108% of control, the kinase inhibition (P70S6K(h); 25 μg/ml) was 108% of control and the kinase inhibition (P70S6K(h); 50 μg/ml) was 92% of control. The kinase inhibition (P70S6K(h); 100 μg/ml) was 69% of control, the kinase inhibition (SIK(h); 1 μg/ml) was 102% of control and the kinase inhibition (SIK(h); 5 μg/ml) was 99% of control. The kinase inhibition (SIK(h); 25 μg/ml) was 104% of control, the kinase inhibition (SIK(h); 50 μg/ml) was 89% of control and the kinase inhibition (SIK(h); 100 μg/ml) was 62% of control. For the same compound, the kinase inhibition (Abl(Y253F)(h); 1 μg/ml) was 117% of control, the kinase inhibition (Abl(Y253F)(h); 5 μg/ml) was 100% of control and the kinase inhibition (Abl(Y253F)(h); 25 μg/ml) was 83% of control. The kinase inhibition (Abl(Y253F)(h); 50 μg/ml) was 65% of control and the kinase inhibition (Abl(Y253F)(h); 100 μg/ml) was 58% of control.
